Source: PMC6429214, “Design, Synthesis and Biological Evaluation of Isoxazole-Based CK1 Inhibitors Modified with Chiral Pyrrolidine Scaffolds” (Molecules, 2019)

Assays:
Assay in all cases: 33PanQinase panel
Format in all cases: biochemical
GRK5 = molecular target: T1, GRK5 (Homo sapiens, UniProt P34947); settings: GRK5, 1 µM; read-out: Residual Activity (%)
T1 construct: purchased ProQinase
Procedure: (§1) Figure 5 Dendrogram representation of the selectivity profile of 29d at a concentration of 1 μM in a panel of 320 wild-type kinases (ProQinase, Freiburg, Germany). The residual kinase activity was determined compared to DMSO control. Images were generated using TREEspot Software Tool, DISCOVERX CORPORATION 2010.
(§2) Figure S1. X-ray crystal structure of intermediate compound 25d (ORTEP drawing with ellipsoids at 30% probability). CCDC 1589043 contains the supplementary crystallographic data for this paper. The data can be obtained free of charge from The Cambridge Crystallographic Data Centre via www.ccdc.cam.ac.uk/structures.
(§3) Table S1 Data collection, structure refinement and Ramachrandran plot results of protein crystallization of CK1δ in complex with compound 30a and 30b, respectively.
(§4) Root-mean-square deviations
(§5) Additionally allowed 2.6 2.2
(§6) Table S2. Selectivity profile of compound 29d. The inhibitor has been screened at a concentration of 1 µM over a panel of 320 wild-type protein kinases by ProQinase GmbH (Freiburg, Germany) using an activity-based radiometric 33PanQinase® assay. Results are presented as percentage of residual kinase activity relative to […]
(§7) control. The final DMSO concentration was 1 % in each reaction-mix. Classification of protein kinase families refers to Manning et al. (Manning, G.; Whyte, D. B.; Martinez, R.; Hunter, T.; Sudarsanam, S. The Protein Kinase Complement of the Human Genome. Science 2002, 298, 1912–1934): AGC = containing PKA, PKG, PKC families; […] = containing Cdk, MAPK, GSK3, CLK families; STE = homologs of yeast sterile 7, sterile 11, sterile 20 kinases; TK = tyrosine kinase; TKL = tyrosine kinase-like.
(§8) Kinase name Kinase family Residual Activity (%)

GRK7 = molecular target: T2, GRK7 (Homo sapiens, UniProt Q8WTQ7); settings: GRK7, 1 µM; read-out: Residual Activity (%)
T2 construct: purchased ProQinase
T2 sequence (Q8WTQ7 whole entry): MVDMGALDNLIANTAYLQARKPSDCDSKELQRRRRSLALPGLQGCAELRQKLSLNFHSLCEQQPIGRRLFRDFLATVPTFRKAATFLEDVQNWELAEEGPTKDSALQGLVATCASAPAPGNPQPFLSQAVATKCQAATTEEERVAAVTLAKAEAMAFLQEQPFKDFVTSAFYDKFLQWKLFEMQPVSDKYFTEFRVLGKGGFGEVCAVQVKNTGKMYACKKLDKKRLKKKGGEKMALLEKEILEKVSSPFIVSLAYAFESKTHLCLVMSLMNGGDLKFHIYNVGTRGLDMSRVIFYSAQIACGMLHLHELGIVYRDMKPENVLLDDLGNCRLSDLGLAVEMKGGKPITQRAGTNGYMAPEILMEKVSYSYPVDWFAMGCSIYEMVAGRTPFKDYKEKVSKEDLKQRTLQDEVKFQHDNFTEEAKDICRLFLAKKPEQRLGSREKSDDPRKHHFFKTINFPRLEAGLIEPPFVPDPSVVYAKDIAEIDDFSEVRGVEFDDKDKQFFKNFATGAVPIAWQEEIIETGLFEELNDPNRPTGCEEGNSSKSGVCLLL
Procedure: as §1, §2, §3, §4, §5, §6, §7, §8

mTOR = molecular target: T3, mTOR (Homo sapiens, UniProt P42345); settings: read-out: Residual Activity (%)
T3 construct: purchased ProQinase
Procedure: as §1, §2, §3, §4, §5, §6, §7, §8

CK1-alpha1 = molecular target: T4, CK1-alpha1 (Homo sapiens, UniProt P48729); settings: CK1-alpha1, 1 µM; read-out: Residual Activity (%)
T4 construct: purchased ProQinase
Procedure: as §1, §2, §3, §4, §5, §6, §7, §8

MARK1 = molecular target: T5, MARK1 (Homo sapiens, UniProt Q9P0L2); settings: MARK1, 1 µM; read-out: Residual Activity (%)
T5 construct: purchased ProQinase
Procedure: as §1, §2, §3, §4, §5, §6, §7, §8

ASK1 = molecular target: T6, ASK1 (Homo sapiens, UniProt Q99683); settings: ASK1, 1 µM; read-out: Residual Activity (%)
T6 construct: purchased ProQinase
T6 sequence (Q99683 whole entry): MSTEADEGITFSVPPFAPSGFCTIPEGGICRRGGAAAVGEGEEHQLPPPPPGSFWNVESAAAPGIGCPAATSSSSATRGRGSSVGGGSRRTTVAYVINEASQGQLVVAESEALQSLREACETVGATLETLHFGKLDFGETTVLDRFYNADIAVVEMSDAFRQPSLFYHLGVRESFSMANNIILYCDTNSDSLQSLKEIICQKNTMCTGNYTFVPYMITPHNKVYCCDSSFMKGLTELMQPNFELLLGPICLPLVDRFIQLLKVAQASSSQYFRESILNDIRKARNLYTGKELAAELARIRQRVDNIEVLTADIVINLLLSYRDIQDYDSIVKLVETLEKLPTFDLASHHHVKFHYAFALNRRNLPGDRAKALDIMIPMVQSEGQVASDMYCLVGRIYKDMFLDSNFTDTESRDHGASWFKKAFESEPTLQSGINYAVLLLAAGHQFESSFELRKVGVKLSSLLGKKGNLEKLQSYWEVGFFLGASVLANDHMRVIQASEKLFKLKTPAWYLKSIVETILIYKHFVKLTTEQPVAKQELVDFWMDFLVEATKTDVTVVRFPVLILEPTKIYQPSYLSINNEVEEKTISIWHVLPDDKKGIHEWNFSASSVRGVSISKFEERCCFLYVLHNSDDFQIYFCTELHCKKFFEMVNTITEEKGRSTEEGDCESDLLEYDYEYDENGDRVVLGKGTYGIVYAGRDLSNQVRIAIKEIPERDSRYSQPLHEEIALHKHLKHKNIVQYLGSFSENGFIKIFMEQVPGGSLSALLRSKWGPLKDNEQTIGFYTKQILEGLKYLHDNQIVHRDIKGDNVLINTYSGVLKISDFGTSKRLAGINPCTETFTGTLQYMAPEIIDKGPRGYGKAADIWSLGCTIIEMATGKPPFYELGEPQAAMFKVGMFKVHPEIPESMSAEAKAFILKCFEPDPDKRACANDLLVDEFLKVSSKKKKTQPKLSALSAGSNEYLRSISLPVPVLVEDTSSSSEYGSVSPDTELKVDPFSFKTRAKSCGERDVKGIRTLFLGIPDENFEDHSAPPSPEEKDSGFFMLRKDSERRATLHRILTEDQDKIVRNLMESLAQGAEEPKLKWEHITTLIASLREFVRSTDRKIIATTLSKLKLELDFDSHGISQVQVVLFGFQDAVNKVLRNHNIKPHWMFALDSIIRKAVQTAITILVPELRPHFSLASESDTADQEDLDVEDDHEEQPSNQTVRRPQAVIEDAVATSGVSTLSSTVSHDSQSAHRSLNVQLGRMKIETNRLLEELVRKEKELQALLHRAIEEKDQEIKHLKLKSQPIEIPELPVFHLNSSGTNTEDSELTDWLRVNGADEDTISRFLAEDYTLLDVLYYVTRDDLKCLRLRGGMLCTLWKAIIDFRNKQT
Procedure: as §1, §2, §3, §4, §5, §6, §7, §8

MAP3K11 = molecular target: T7, MAP3K11 (Homo sapiens, UniProt Q16584); settings: MAP3K11, 1 µM; read-out: Residual Activity (%)
T7 construct: purchased ProQinase
Procedure: as §1, §2, §3, §4, §5, §6, §7, §8

CDK3/CycE1 = molecular target: T8, CDK3/CycE1 (Homo sapiens, UniProt Q00526); settings: CDK3/CycE1, 1 µM; read-out: Residual Activity (%)
T8 construct: purchased ProQinase
Procedure: as §1, §2, §3, §4, §5, §6, §7, §8

CDK8/CycC = molecular target: T9, CDK8/CycC (Homo sapiens, UniProt P49336); settings: read-out: Residual Activity (%)
T9 construct: purchased ProQinase
Procedure: as §1, §2, §3, §4, §5, §6, §7, §8

TLK2 = molecular target: T10, TLK2 (Homo sapiens, UniProt Q86UE8); settings: TLK2, 1 µM; read-out: Residual Activity (%)
T10 construct: purchased ProQinase
T10 sequence (Q86UE8 whole entry): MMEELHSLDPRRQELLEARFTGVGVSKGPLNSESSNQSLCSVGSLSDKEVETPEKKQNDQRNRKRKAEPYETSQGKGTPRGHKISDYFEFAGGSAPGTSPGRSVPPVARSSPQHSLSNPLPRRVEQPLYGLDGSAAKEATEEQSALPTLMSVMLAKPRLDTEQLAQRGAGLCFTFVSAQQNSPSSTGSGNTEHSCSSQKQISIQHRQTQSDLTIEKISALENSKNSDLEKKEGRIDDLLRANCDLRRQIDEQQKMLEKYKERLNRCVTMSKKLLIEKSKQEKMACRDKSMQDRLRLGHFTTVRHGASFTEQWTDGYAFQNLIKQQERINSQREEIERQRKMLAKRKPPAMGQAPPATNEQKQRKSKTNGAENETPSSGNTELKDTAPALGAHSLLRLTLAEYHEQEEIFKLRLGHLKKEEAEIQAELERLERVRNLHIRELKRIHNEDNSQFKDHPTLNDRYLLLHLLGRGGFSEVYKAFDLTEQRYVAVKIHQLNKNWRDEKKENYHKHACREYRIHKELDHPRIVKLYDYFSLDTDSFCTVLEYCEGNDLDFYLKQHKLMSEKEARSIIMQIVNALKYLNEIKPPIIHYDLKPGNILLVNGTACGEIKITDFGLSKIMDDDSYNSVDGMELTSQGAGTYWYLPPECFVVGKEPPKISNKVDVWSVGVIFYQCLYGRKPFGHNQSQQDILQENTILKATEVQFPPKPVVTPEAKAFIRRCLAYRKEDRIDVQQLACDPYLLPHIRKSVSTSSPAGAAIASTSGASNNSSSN
Procedure: as §1, §2, §3, §4, §5, §6, §7, §8

MAP3K9 = molecular target: T11, MAP3K9 (Homo sapiens, UniProt P80192); settings: MAP3K9, 1 µM; read-out: Residual Activity (%)
T11 construct: purchased ProQinase
Procedure: as §1, §2, §3, §4, §5, §6, §7, §8

STK23 = molecular target: T12, STK23 (Homo sapiens, UniProt Q9UPE1); settings: STK23, 1 µM; read-out: Residual Activity (%)
T12 construct: purchased ProQinase
Procedure: as §1, §2, §3, §4, §5, §6, §7, §8

ROCK1 = molecular target: T13, ROCK1 (Homo sapiens, UniProt Q13464); settings: ROCK1, 1 µM; read-out: Residual Activity (%)
T13 construct: purchased ProQinase
Procedure: as §1, §2, §3, §4, §5, §6, §7, §8

LIMK1 = molecular target: T14, LIMK1 (Homo sapiens, UniProt P53667); settings: LIMK1, 1 µM; read-out: Residual Activity (%)
T14 construct: purchased ProQinase
Procedure: as §1, §2, §3, §4, §5, §6, §7, §8

HIPK2 = molecular target: T15, HIPK2 (Homo sapiens, UniProt Q9H2X6); settings: HIPK2, 1 µM; read-out: Residual Activity (%)
T15 construct: purchased ProQinase
Procedure: as §1, §2, §3, §4, §5, §6, §7, §8

TRK-A = molecular target: T16, TRK-A (Homo sapiens, UniProt P04629); settings: read-out: Residual Activity (%)
T16 construct: purchased ProQinase
Procedure: as §1, §2, §3, §4, §5, §6, §7, §8

EPHA1 = molecular target: T17, EPHA1 (Homo sapiens, UniProt P21709); settings: EPHA1, 1 µM; read-out: Residual Activity (%)
T17 construct: purchased ProQinase
Procedure: as §1, §2, §3, §4, §5, §6, §7, §8

DYRK4 = molecular target: T18, DYRK4 (Homo sapiens, UniProt Q9NR20); settings: DYRK4, 1 µM; read-out: Residual Activity (%)
T18 construct: purchased ProQinase
Procedure: as §1, §2, §3, §4, §5, §6, §7, §8

GRK3 = molecular target: T19, GRK3 (Homo sapiens, UniProt P35626); settings: GRK3, 1 µM; read-out: Residual Activity (%)
T19 construct: purchased ProQinase
Procedure: as §1, §2, §3, §4, §5, §6, §7, §8

STK33 = molecular target: T20, STK33 (Homo sapiens, UniProt Q9BYT3); settings: STK33, 1 µM; read-out: Residual Activity (%)
T20 construct: purchased ProQinase
Procedure: as §1, §2, §3, §4, §5, §6, §7, §8

IRAK4 (untagged) = molecular target: T21, IRAK4 (untagged) (Homo sapiens, UniProt Q9NWZ3); settings: read-out: Residual Activity (%)
T21 construct: purchased ProQinase
Procedure: as §1, §2, §3, §4, §5, §6, §7, §8

PKC-nu = molecular target: T22, PKC-nu (Homo sapiens, UniProt O94806); settings: read-out: Residual Activity (%)
T22 construct: purchased ProQinase
Procedure: as §1, §2, §3, §4, §5, §6, §7, §8

MELK = molecular target: T23, MELK (Homo sapiens, UniProt Q14680); settings: read-out: Residual Activity (%)
T23 construct: purchased ProQinase
Procedure: as §1, §2, §3, §4, §5, §6, §7, §8

CAMK1D = molecular target: T24, CAMK1D (Homo sapiens, UniProt Q8IU85); settings: read-out: Residual Activity (%)
T24 construct: purchased ProQinase
T24 sequence (Q8IU85 whole entry): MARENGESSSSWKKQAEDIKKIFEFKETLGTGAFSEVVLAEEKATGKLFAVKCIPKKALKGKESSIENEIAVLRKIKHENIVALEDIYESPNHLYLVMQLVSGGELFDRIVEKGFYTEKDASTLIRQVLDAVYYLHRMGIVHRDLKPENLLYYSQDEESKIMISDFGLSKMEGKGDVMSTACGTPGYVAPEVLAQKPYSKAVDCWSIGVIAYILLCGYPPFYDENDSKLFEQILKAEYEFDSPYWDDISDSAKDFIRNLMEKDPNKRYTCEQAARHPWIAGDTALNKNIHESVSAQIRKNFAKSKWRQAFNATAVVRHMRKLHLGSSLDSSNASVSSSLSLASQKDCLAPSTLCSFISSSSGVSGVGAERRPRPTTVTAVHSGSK
Procedure: as §1, §2, §3, §4, §5, §6, §7, §8

MEKK3 = molecular target: T25, MEKK3 (Homo sapiens, UniProt Q99759); settings: MEKK3, 1 µM; read-out: Residual Activity (%)
T25 construct: purchased ProQinase
T25 sequence (Q99759 whole entry): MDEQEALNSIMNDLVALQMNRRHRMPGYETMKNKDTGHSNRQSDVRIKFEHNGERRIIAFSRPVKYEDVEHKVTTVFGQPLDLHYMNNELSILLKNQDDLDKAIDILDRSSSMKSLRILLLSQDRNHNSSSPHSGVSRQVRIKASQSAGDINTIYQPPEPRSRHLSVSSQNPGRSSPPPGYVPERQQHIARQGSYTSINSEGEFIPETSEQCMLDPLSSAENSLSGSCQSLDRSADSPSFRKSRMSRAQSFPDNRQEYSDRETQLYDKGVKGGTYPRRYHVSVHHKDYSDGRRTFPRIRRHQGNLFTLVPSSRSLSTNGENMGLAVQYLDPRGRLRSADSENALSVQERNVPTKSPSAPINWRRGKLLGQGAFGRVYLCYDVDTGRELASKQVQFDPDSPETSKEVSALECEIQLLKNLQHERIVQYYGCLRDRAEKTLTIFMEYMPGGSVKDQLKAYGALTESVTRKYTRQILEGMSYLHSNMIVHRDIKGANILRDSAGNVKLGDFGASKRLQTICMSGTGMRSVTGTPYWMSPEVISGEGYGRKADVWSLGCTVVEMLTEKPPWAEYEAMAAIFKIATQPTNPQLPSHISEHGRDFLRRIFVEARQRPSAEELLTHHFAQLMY
Procedure: as §1, §2, §3, §4, §5, §6, §7, §8

CAMK2G = molecular target: T26, CAMK2G (Homo sapiens, UniProt Q13555); settings: read-out: Residual Activity (%)
T26 construct: purchased ProQinase
Procedure: as §1, §2, §3, §4, §5, §6, §7, §8

SNK = molecular target: T27, SNK (Homo sapiens, UniProt Q9NYY3); settings: read-out: Residual Activity (%)
T27 construct: purchased ProQinase
T27 sequence (Q9NYY3 whole entry): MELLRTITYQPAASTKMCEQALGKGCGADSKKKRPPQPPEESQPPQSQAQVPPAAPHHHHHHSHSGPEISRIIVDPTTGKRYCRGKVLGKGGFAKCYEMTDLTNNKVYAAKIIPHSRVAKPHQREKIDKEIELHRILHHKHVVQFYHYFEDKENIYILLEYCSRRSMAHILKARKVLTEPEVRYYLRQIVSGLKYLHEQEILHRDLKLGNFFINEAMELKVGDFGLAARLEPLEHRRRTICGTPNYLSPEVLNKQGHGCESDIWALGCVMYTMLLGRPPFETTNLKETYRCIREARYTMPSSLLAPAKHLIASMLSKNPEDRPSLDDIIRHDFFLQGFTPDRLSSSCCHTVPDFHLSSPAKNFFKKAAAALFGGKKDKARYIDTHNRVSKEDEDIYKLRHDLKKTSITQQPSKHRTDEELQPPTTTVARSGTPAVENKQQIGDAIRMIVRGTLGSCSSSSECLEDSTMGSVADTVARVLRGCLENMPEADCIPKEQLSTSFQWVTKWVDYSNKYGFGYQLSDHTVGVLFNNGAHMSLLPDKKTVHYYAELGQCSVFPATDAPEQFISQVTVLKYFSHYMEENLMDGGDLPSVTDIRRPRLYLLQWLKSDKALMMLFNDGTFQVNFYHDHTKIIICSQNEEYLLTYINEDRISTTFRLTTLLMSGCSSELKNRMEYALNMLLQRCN
Procedure: as §1, §2, §3, §4, §5, §6, §7, §8

T1 sequence (P34947 whole entry): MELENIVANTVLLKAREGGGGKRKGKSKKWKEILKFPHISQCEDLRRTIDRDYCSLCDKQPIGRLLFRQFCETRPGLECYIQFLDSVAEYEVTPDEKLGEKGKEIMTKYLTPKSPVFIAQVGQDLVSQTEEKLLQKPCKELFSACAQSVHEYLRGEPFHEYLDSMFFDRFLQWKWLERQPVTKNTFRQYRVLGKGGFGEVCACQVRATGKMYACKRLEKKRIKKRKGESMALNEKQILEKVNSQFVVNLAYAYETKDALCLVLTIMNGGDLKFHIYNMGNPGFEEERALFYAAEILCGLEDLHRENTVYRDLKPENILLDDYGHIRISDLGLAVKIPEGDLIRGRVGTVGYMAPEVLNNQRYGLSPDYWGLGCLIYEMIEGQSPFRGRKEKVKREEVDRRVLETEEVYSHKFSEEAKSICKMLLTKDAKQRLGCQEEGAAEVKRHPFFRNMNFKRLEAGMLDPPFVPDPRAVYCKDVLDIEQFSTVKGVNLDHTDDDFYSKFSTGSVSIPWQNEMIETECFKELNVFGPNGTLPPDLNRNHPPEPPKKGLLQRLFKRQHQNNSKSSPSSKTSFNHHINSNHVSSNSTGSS

With `COc1ccc(-c2cc(C(=O)Nc3cc(-c4c(-c5ccc(F)cc5)noc4C(C)C)ccn3)n(CC3NCC(O)C3O)c2)cc1` (stereo not drawn) [29d] the remaining activity at 1 µM (GRK5) was 97%, the remaining activity at 1 µM (GRK7) was 107% and the remaining activity at 1 µM (mTOR) was 127%. It also gave a remaining activity at 1 µM (CK1-alpha1) of 16%, a remaining activity at 1 µM (MARK1) of 80% and a remaining activity at 1 µM (ASK1) of 107%. It also gave a remaining activity at 1 µM (MAP3K11) of 88%, a remaining activity at 1 µM (CDK3/CycE1) of 103% and a remaining activity at 1 µM (CDK8/CycC) of 106%. For the same compound, the remaining activity at 1 µM (TLK2) was 108%, the remaining activity at 1 µM (MAP3K9) was 116% and the remaining activity at 1 µM (STK23) was 96%. It also gave a remaining activity at 1 µM (ROCK1) of 92%, a remaining activity at 1 µM (LIMK1) of 105% and a remaining activity at 1 µM (HIPK2) of 83%. It also gave a remaining activity at 1 µM (TRK-A) of 116%, a remaining activity at 1 µM (EPHA1) of 120% and a remaining activity at 1 µM (DYRK4) of 80%. It also gave a remaining activity at 1 µM (GRK3) of 109%, a remaining activity at 1 µM (STK33) of 84% and a remaining activity at 1 µM (IRAK4 (untagged)) of 89%. It also gave a remaining activity at 1 µM (PKC-nu) of 90%, a remaining activity at 1 µM (MELK) of 107% and a remaining activity at 1 µM (CAMK1D) of 89%. It also gave a remaining activity at 1 µM (MEKK3) of 104%, a remaining activity at 1 µM (CAMK2G) of 119% and a remaining activity at 1 µM (SNK) of 108%.
